Assay results reported in patent US20240374564A1, “NOVEL SEROTONIN DERIVATIVES AND THEIR USES FOR TREATING IRON-ASSOCIATED DISORDERS” (priority 2021, published 2024).

Assays:
[1] = tested on: Hbb^Th1/th1 mice; assay: Model 1 Hbb^Th1/th1 mice, first round: red blood cells production and iron overload; assay type: in vivo, mouse; details: for RBC count / hemoglobin / hematocrit contents: Ip injection; for RBC count: day 1 to 5, FIG. 1A; for hemoglobin: day 1 to 5, FIG. 1B; for hematocrit contents: day 1 to 5, FIG. 1C; for iron content in bone marrow / iron content in spleen: day 5 after sacrifice, FIG. 1D
Excerpt: (§1) Hbb^th1/th1 mice carry a 3.7-kb homozygous spontaneous deletion that eliminates the Hemoglobin Subunit Beta (HBB) gene and 2 kb of the 5′ flanking region, including the promoter. On the basis of genetic and hematological criteria, these mice constitute the first animal model of beta-thalassemia.
(§2) Mouse models Hbb^Th1/Th1 with ineffective erythropoiesis and iron overload received intraperitoneal (Ip) injection of A1 or A3 derivatives starting on day 0.
(§3) In a first round of experiments, a complete red blood cells count (RBC) was achieved on day 1, day 2 and day 5.
(§4) On day 5, the animals were sacrificed and histology of their organs and iron measurement in organs was carried out.

[2] = tested on: Tph1 KO mice; assay: Model 2 Tph1 KO mice, second round: iron distribution, FACS, ferritin; assay type: in vivo, mouse; set-up: condition of the mice compared with controls: dose or concentration left out as unconfirmed
Excerpt: (§5) This model is a peripheral serotonin deficient mice. It is a mouse model of low risk myelodysplastic syndrome, with ineffective erythropoiesis, light anemia, iron overload (spleen), abnormal red blood cells and apoptosis of proerythroblasts (see Côté et al., PNAS, 2003, 100 (23), 13525-13530).
(§6) Mouse models Tph1 KO with ineffective erythropoiesis and iron overload received intraperitoneal (Ip) injection of A1, A3, A4 derivatives or serotonin starting on day 0.
(§7) In a second round of experiments, a complete red blood cells count (RBC) was achieved on day 2 day 5, day 10, day 15, day 20, day 25 and day 30. 4 mice were sacrificed on day 5 and every 5 days afterward for toxicity tests, Flow Cytometry Analysis and FACS (fluorescence-activated single cell sorting) essentially on bone marrow and spleen, biochemical analysis, iron status (organs, serum and urines), and histology.

[3] = tested on: Hamp KO mice; assay: Model 3 Hamp KO mice: iron overload; assay type: in vivo, mouse
Excerpt: Hepcidin, encoded by the HAMP gene, is the main regulator of iron homeostasis, and its expression is tightly regulated by signals including iron levels, erythropoietic activity, hypoxia, and inflammation.
It is a mouse model of hemochromatosis. Hepcidin deficient mice progressively develop multivisceral iron overload; plasma iron overcomes transferrin binding capacity, and nontransferrin-bound iron accumulates in various tissues including pancreas and heart (see Nicolas et al., PNAS 2001, 98 (15), 8780-8785).
Mouse model of iron overload without ineffective erythropoiesis (Hamp KO) received intraperitoneal (Ip) injection of A3 derivatives or serotonin starting on day 0.
as §4

[4] = tested on: skin fibroblasts from FA/BPAN patients; assay: Western blot analysis of skin fibroblasts from FA/BPAN patients treated with ferric ammonium citrate; assay type: cell-based, human; details: iron overload (FAC 100 uM)
Procedure: Further tests were carried out on skin fibroblasts from Friedreich ataxia and Beta-propeller protein-associated neurodegeneration (BPAN) patients, to assess in particular the effects of the compounds of the invention on iron accumulation in both the cytosol and mitochondria of said fibroblasts.
Cultured skin fibroblasts from Friedreich ataxia patients were used as described in Petit et al., Blood. 2021; 137 (15): 2090-2102 and Ingrassia et al., Front Genet 2017 Feb. 17; 8:18.

[5] = tested on: Hbb^Th1/th1 mice; assay: Model 1 Hbb^Th1/th1 mice, second round: FACS, RBC, body iron, urinary ferritin; assay type: in vivo, mouse; set-up: condition of the mice compared with control: dose or concentration left out as unconfirmed
Excerpt: as §1, §2, §7
ProE and Ebaso are part of phases I-II, EBaso and LBaso are part of phases III-IVa, Poly and Ortho are part of phases IVb-V of cells differentiation. The mature stage is also called “acido”.

[6] = tested on: cells from beta-thalassemic patients; assay: FACS analysis in cells from beta-thalassemic patients; assay type: cell-based, human; details: cells from beta-thalassemic patients (n=3), FIG. 8D
Procedure: In vitro tests were carried out on cells derived from blood of β-thalassemic patients before transfusion

[7] = tested on: Tph1 KO mice; assay: Model 2 Tph1 KO mice, first round: red blood cells production and iron overload; assay type: in vivo, mouse; details: for anemic phenotype / RBC count / hemoglobin / hematocrit contents / heme content in red blood cells / mean cellular volume (MCV): Ip injection; for RBC count: day 1 to 5, FIG. 2A; for hemoglobin: day 1 to 5, FIG. 2B; for hematocrit contents: day 1 to 5, FIG. 2C; for heme content in red blood cells: day 1 to 5, FIG. 2D; for mean cellular volume (MCV): day 1 to 5, FIG. 2E; for iron content in spleen / iron content in bone marrow: day 5 after sacrifice; for iron content in spleen: FIG. 2F; for iron content in bone marrow: FIG. 2G
Excerpt: as §5, §6, §3, §4

[8] = 5-HT deficient (Tph1 KO) mice, vs PBS
[9] = Hbb^Th1/th1 mice, flow cytometry, day 13, vs PBS-treated mice
[10] = Hbb^th1/th1 mice, 21 days of injection, FIG. 5C

C#CCOc1ccc2[nH]cc(CCN(CC#C)CC#C)c2c1 [Derivative A1, N-(prop-2-yn-1-yl)-N-(2-(5-(prop-2-yn-1-yloxy)-1H-indol-3-yl)ethyl) prop-2-yn-1-amine]
RBC count [1]: improved | hemoglobin [1]: improved | hematocrit contents [1]: improved | iron content in bone marrow [1]: relocate into cells of the bone marrow | iron content in spleen [1]: decreased the iron overload in spleen

C#CCNCCc1c[nH]c2ccc(O)cc12.O=CO [Derivative A3, N-(2-(5-hydroxy-1H-indol-3-yl)ethyl)prop-2-yn-1-aminium formate]
cell blood survival [2, 8]: increased | erythroid expansion [2, 8]: restored | cellular iron misdistribution ([2]; Tph1 KO mice, 5 days of treatment, vs non-treated, FIG. 7A): corrects cellular iron misdistribution | cellular iron misdistribution ([2]; Tph1 KO mice, 21 days of IP injection, vs PBS, FIG. 7B): corrects cellular iron misdistribution | pathological features of ineffective erythropoiesis ([2]; Tph1 KO mice, 21 days, FIG. 7C): corrects | iron overload (ferritin level) ([2]; Tph1 KO mice, 21 days, bone marrow, FIG. 7C): decrease iron overload | condition of the mice compared with controls ([2]; Tph1 KO mice, IP for 5 and 21 days): improved condition of the mice | iron level in the liver ([3]; day 5, FIG. 3B): reduced | increased p62 expression ([4]; FIG. 9B): ~60% | decreased FTH expression ([4]; FIGS. 9A-9B): ~40% | RBC count [1]: improved | hemoglobin [1]: improved | hematocrit contents [1]: improved | iron content in bone marrow [1]: relocate into cells of the bone marrow | iron content in spleen [1]: decreased the iron overload in spleen | cell survival ([5]; Hbb^Th1/Th1 mice, vs PBS): increased | erythroid expansion ([5]; Hbb^Th1/Th1 mice, vs PBS): restored | maturation arrest ([5]; Hbb^Th1/Th1 mice, vs PBS): stopped | condition of the mice compared with control ([5]; Hbb^Th1/th1 mice, Ip for 13 and 21 days, vs PBS): improved condition of the mice | pathological features of β-thalassemia ([5]; Hbb^Th1/th1 mice, conclusion from flow cytometry): corrects pathological features of β-thalassemia | urinary ferritin levels ([5]; Hbb^Th1/th1 mice, day 13, vs control mice, FIG. 5D): significant increase | percentage Ter-119+CD71+FSC cells (III-IVa) in bone marrow [5, 9]: decrease | percentage and absolute number of Ter-119+CD71−FSC cells (IVb-V) in bone marrow [5, 9]: increase | bone marrow expansion ([5]; Hbb^th1/th1 mice, 13 days of injection, FIG. 5A): correction of bone marrow expansion | iron overload (total body iron content) ([5]; Hbb^th1/th1 mice, 13 days of injection, FIG. 5B): decrease in iron overload | ratio immature/mature erythroblasts (Ratio Poly/Acido) ([5]; Hbb^th1/th1 mice, 21 days of injection): restores | iron overload (total body iron content) [5, 10]: decrease iron overload | number of erythroid progenitors [5, 10]: Decrease | number of mature erythroid cells [5, 10]: Increase | differentiation of erythroid progenitors [6]: increases differentiation of erythroid progenitors | immature/mature ratio [6]: decrease | anemic phenotype [7]: ameliorate the anemic phenotype | RBC count [7]: improved | hemoglobin [7]: improved | hematocrit contents [7]: improved | heme content in red blood cells [7]: improved | mean cellular volume (MCV) [7]: decrease | iron content in spleen [7]: mobilized out of the spleen | iron content in bone marrow [7]: relocate into cells of the bone marrow

C#CCN(CC#C)CCc1c[nH]c2ccc(O)cc12 [Derivative A4, 3-(2-(di(prop-2-yn-1-yl)amino)ethyl)-1H-indol-5-ol]
anemic phenotype [7]: ameliorate the anemic phenotype | RBC count [7]: improved | hemoglobin [7]: improved | hematocrit contents [7]: improved | heme content in red blood cells [7]: improved | mean cellular volume (MCV) [7]: decrease | iron content in spleen [7]: mobilized out of the spleen | iron content in bone marrow [7]: relocate into cells of the bone marrow

NCCc1c[nH]c2ccc(O)cc12 [serotonin, 5-hydroxytryptamine]
iron level in the blood ([3]; day 5, FIG. 3A): reduced | transferrin saturation ([3]; day 5, FIG. 3C): reduced | anemic phenotype [7]: ameliorate the anemic phenotype | RBC count [7]: improved | hemoglobin [7]: improved | hematocrit contents [7]: improved | heme content in red blood cells [7]: improved | mean cellular volume (MCV) [7]: decrease | iron content in spleen [7]: mobilized out of the spleen | iron content in bone marrow [7]: relocate into cells of the bone marrow
